Patent US12559471B2, “1,5-dihydro-2,4-benzodiazepine-3-one derivative and application thereof” (JIANGSU NHWA PHARMACEUTICAL CO., LTD, priority 2020, dated 2026)
Read-outs that look alike come from different tables or passages of the source.

Columns and labels:
[1] = target: 5-HT2A receptor (Homo sapiens (Human), UniProt P28223); assay: Competitive 5-HT2A receptor binding assay (3H-Ketanserin, CHO-5-HT2A membrane); conditions: for 2C/2A: ratio of 5-HT2C Ki to 5-HT2A Ki
Protocol: 1) Preparation of CHO-5-HT2A Receptor Membrane
The precipitate was collected, and the supernatant was discarded. The solution B was added into the precipitate. […] The supernatant was carefully discarded, and the solution B was added into the precipitate again. […] The precipitate obtained was stored at −80° C.
1) Competitive 5-HT2A Receptor Binding Assay
Step 2: 100 μL of the membrane preparation was added into each reaction tube.
After the filtration, the filter membrane was dried at 60° C. and added into a scintillation disc attached with a bottom membrane, which was then added with 40 μL of scintillation liquid, sealed with a top membrane, and left to stand.

[2] = target: 5-HT2C receptor (Rattus norvegicus (Rat), UniProt P08909)
5-HT2C receptor, sequence (P08909 33-460): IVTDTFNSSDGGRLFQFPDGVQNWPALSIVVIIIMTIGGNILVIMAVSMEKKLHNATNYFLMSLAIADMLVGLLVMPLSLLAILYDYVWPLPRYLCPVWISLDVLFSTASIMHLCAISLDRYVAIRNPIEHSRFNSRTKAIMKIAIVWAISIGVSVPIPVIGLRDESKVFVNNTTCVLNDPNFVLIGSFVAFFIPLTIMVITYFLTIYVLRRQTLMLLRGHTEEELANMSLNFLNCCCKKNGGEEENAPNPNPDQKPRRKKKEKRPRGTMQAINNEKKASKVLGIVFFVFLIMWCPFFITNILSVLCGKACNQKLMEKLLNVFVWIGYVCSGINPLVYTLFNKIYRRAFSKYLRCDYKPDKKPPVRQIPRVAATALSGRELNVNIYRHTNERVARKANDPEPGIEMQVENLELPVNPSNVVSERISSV

[3] = system: DOI-induced head shaking behavior of mice; assay: DOI-induced head shaking (head thrust) test in mice; type: in vivo; conditions: Mus musculus, intragastric, DOI 1 mg/kg i.p., 0-20 min, read-out: ED50 for inhibiting the DOI-induced head shaking behavior
Protocol: 1. Head Thrust Test in Mice
Mice were stratified according to body weight and then randomly divided into a model control group, a blank control group and drug administration groups. 1 h after the intragastric administration of a vehicle or a drug, the animals were placed in a beaker (with the diameter of 13 cm and the height of 19 cm) paved with fresh padding, and were injected with a modeling drug DOI ((±)-1-(2,5-dimethoxy-4-iodophenyl)-2-aminopropane hydrochloride or (±)-2,5-dimethoxy-4-iodoamphetamine hydrochloride) intraperitoneally at a dose of 1 mg/kg. The head shaking times of the mice during the 0-20 min after the intraperitoneal injection of DOI were recorded. The head shaking behavior is defined as a rapid rotational twitching or wet dog-like shaking of the mouse head, which is distinguished from normal grooming or exploring behavior.

[4] = system: MK-801-induced high activity behavior of mice; assay: Dizocilpine (MK-801)-induced high activity test in mice; type: in vivo; conditions: Mus musculus, 1 h, intragastric, MK-801 0.3 mg/kg i.p., 60 min, read-out: ED50 for inhibiting the MK-801-induced high activity behavior
Protocol: 2. Dizocilpine (MK-801)-Induced High Activity Test in Mice 2.1 Test Method
Mice were stratified according to body weight and then randomly divided into a model control group, a blank control group and drug administration groups. After the administration of a test substance (or a control substance), the mice were placed into an autonomous activity test box (a black polyethylene box with the specification of 29 cm×29 cm×30 cm) for adaptation, and injected with MK-801 at 0.3 mg/kg intraperitoneally 1 h after the intragastric administration. The mice were then placed into the autonomous activity test box for video recording for 60 min. Video analysis was performed after the video recording to evaluate the activity of the mice.

[5] = CHO-5-HT2A membrane, 3H-Ketanserin, read-out: 5-HT2A (Ki value)
[6] = read-out: 5-HT2C (Ki value), rat cortex membrane, 3H-Mesulergine

5-HT2A receptor, sequence (P28223 whole entry): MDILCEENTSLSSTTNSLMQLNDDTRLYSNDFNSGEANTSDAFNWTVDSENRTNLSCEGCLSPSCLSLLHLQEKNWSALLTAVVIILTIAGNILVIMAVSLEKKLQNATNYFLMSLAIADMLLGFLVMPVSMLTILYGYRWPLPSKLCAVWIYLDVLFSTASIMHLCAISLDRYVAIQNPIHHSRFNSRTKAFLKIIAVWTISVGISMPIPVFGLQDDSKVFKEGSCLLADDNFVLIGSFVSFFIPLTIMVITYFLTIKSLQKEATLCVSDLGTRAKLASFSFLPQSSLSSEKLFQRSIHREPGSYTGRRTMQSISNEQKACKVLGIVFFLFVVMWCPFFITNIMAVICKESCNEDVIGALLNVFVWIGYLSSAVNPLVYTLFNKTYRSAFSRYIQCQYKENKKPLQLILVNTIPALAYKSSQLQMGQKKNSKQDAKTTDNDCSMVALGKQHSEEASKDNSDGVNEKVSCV

## CC(C)Cc1ccc(CN2Cc3ccc(F)cc3CN(C3CCN(C)CC3)C2=O)cc1 [NH-K-A19008, 8-fluoro-2-(1-methylpiperidin-4-yl)-4-[[4-(2-methylpropyl)phenyl]methyl]-1,5-dihydro-2,4-benzodiazepine-3-one]
[1]; [5]
  Ki: 5.29 nM
[1]
  2C/2A: 7.999
[2]; [6]
  Ki: 42.4 nM

## CC(C)COc1ccc(CN2Cc3ccc(F)cc3CN([C@H]3CCN(C)C[C@@H]3F)C2=O)cc1 [NH-K-A19014-0A, (3S,4S)-8-fluoro-2-(1-methyl-3-fluoropiperidin-4-yl)-4-[[4-(2-methylpropoxy)phenyl]methyl]-1,5-dihydro-2,4-benzodiazepine-3-one]
[1]; [5]
  Ki: 0.002 nM
[1]
  2C/2A: 16029.47
[2]
  Ki: 26.1 nM

## CC(C)Oc1ccc(CN2Cc3ccc(F)cc3CN(C3CCN(C)CC3)C2=O)c(F)c1 [NH-K-A19011, 8-fluoro-2-(1-methylpiperidin-4-yl)-4-[[(2-fluoro-4-isopropoxy)phenyl]methyl]-1,5-dihydro-2,4-benzodiazepine-3-one]
[1]; [5]
  Ki: 12.7 nM

## CC(C)Oc1ccc(CN2Cc3ccc(F)cc3CN(C3CCN(C)CC3)C2=O)cc1F [NH-K-A19012, 8-fluoro-2-(1-methylpiperidin-4-yl)-4-[[(3-fluoro-4-isopropoxy)phenyl]methyl]-1,5-dihydro-2,4-benzodiazepine-3-one]
[1]; [5]
  Ki: 0.947 nM
[1]
  2C/2A: 9.882
[3]
  ED50: 0.3 mg/kg
[4]
  ED50: 3.73 mg/kg
[2]; [6]
  Ki: 9.36 nM

## CC(C)COc1ccc(CN2Cc3cc(F)c(F)cc3CN(C3CCN(C)CC3)C2=O)cc1 [NH-K-A20001, 7,8-difluoro-2-(4-isobutoxybenzyl)-4-(1-methylpiperidin-4-yl)-1,2,4,5-tetrahydro-3H-benzo[e][1,3]diazepin-3-one]
[1]; [5]
  Ki: 5.98 nM

## CC(C)CNc1ccc(CN2Cc3ccc(F)cc3CN(C3CCN(C)CC3)C2=O)cc1 [NH-K-A19007, 8-fluoro-2-(1-methylpiperidin-4-yl)-4-[[4-(2-methylpropylamino)phenyl]methyl]-1,5-dihydro-2,4-benzodiazepine-3-one]
[1]; [5]
  Ki: 2.72 nM
[1]
  2C/2A: 10.040
[2]; [6]
  Ki: 27.3 nM

## CC(C)Oc1ccc(CN2Cc3ccc(F)cc3CN(C3CCN(C)CC3)C2=O)cn1 [NH-K-A19013, 8-fluoro-2-(1-methylpiperidin-4-yl)-4-[[(6-isopropoxy)pyridin-3-yl]methyl]-1,5-dihydro-2,4-benzodiazepine-3-one]
[1]; [5]
  Ki: 9.78 nM

## CC(C)COc1ccc(CN2Cc3ccc(F)cc3CC3(CCN(C)CC3)C2=O)cc1 [NH-K-A19019, 7-fluoro-1′-methyl-2-[[4-(2-methylpropoxy)phenyl]methyl]-1,2-dihydrospiro[benzo[c]azepine-4,4′-piperidine]-3(5H)-one]
[1]; [5]
  Ki: 53.3 nM

## CN1CCC(N2Cc3ccc(F)cc3CN(Cc3ccc(OC4CC4)cc3)C2=O)CC1 [NH-K-A19022, 4-[(4-cyclopropoxyphenyl)methyl]-7-fluoro-2-(1-methylpiperidin-4-yl)-1,5-dihydro-2,4-benzodiaze pine-3-one]
[1]; [5]
  Ki: 0.15 nM
[1]
  2C/2A: 8.76
[2]; [6]
  Ki: 1.33 nM

## CC(C)COc1ccc(CN2Cc3cc(Cl)ccc3CN(C3CCN(C)CC3)C2=O)cc1 [NH-K-A190017, 7-chloro-2-(1-methylpiperidin-4-yl)-4-[[4-(2-methylpropoxy)phenyl]methyl]-1,5-dihydro-2,4-benzo diazepine-3-one]
[1]; [5]
  Ki: 1.63 nM
[1]
  2C/2A: 298.694
[2]; [6]
  Ki: 486 nM

## CC(C)COc1ccc(CN2Cc3ccc(F)cc3CN([C@H]3CCN(C)C[C@H]3F)C2=O)cc1 [NH-K-A19014-0, (3R,4S)-8-fluoro-2-(1-methyl-3-fluoropiperidin-4-yl)-4-[[4-(2-methylpropoxy)phenyl]methyl]-1,5-di hydro-2,4-benzodiazepine-3-one]
[1]; [5]
  Ki: 4.19 nM
[1]
  2C/2A: 0.049
[2]
  Ki: 0.2 nM

## CC(C)COc1ccc(CN2Cc3ccc(F)cc3CN(C3CCN(C)C3)C2=O)cc1 (stereo not drawn) [NH-K-A19015]
[1]
  Ki: 1.69 nM
[2]
  Ki: 0.41 nM

## CC(C)COc1ccc(CN2Cc3ccccc3CN(C3CCN(C)CC3)C2=O)cc1 [NH-K-A19020, 2-(1-methylpiperidin-4-yl)-4-[[4-(2-methylpropoxy)phenyl]methyl]-1,5-dihydro-2,4-benzodiazepine-3-one]
[1]; [5]
  Ki: 1.74 nM

## COc1ccc(CN2Cc3ccc(F)cc3CN(C3CCN(C)CC3)C2=O)cc1 [NH-K-A19009, 8-fluoro-2-(1-methylpiperidin-4-yl)-4-[(4-methoxyphenyl)methyl]-1,5-dihydro-2,4-benzodiazepine-3-one]
[1]; [5]
  Ki: 2.99 nM
[1]
  2C/2A: 0.679
[2]; [6]
  Ki: 2.03 nM

## CN1CCC(N2Cc3cc(F)ccc3CN(Cc3ccc(CC(C)(C)O)cc3)C2=O)CC1 [NH-K-A19010, 7-fluoro-2-[[4-(2-hydroxy-2-methylpropyl)phenyl]methyl]-4-(1-methylpiperidin-4-yl)-1,5-dihydro-2,4-benzodiazepin-3-one]
[1]; [5]
  Ki: 20.1 nM
[1]
  2C/2A: 0.91
[2]; [6]
  Ki: 18.2 nM
